Read-outs that look alike come from different tables or passages of the source.
What was measured:
AhR [1] = test system: AhR; parameters: method as in PMID 27158904; details: IAA approx. 5000 µM; cited from earlier work
CYP1A1 mRNA [2] = assay: Summary of CYP1A1 gene expression in human hepatic and intestinal cells; assay type: cell-based; details: for induction of CYP1A1 mRNA: 200 µM, LS180 cells, HT-29 cells, and primary human hepatocytes; for Gene Expression: Table 1 summary class, CYP1A1
Procedure: (§1) Figure 4 Effects of MICT on the induction of CYP1A1 mRNA in human hepatic and intestinal cells. Cultured cells were incubated for 24 h with the vehicle (DMSO; 0.1% v/v) and tested MICT in the presence or absence of TCDD (10 nM). RT-PCR determined the level of CYP1A1 mRNA, and the data were normalized per GAPDH mRNA level. […] (A,B) Experiments in three consecutive passages of human colon adenocarcinoma cell line LS180 in the absence (A) and the presence (B) of 10 nM TCDD. The bar graphs show the percentage of maximal induction attained by TCDD and are expressed as the mean ± SD. (C) Experiments in three consecutive passages of wild-type (AhR^+/^+) and AhR-knockout (AhR^−/^−) HT-29 cells. […] (D) Primary human hepatocytes from three different donors (LH79, Hep2201020, and Hep2201021).
(§2) Total RNA was isolated using TRI Reagent® (Sigma Aldrich, Prague, Czech Republic). cDNA was synthesized using M-MuLV reverse transcriptase (New England Biolabs, Ipswich, MA, USA). The reverse transcription was performed at 42 °C for 60 min using Random Primers 6 (New England Biolabs, Ipswich, MA, USA) and diluted in a 1:4 ratio by PCR-grade water. The quantitative reverse transcriptase-polymerase chain reaction (qRT-PCR) was performed on the Lightcycler 480 II using the LightCycler ® 480 Probes Master (Roche Diagnostic Corporation, Prague, Czech Republic). The levels of CYP1A1 and GAPDH mRNAs were determined using the Universal Probe Library probes (UPL; Roche Diagnostic Corporation, Prague, Czech Republic) in combination with specific primers, using a protocol described elsewhere. All measurements were performed in triplicates, and the gene expression was normalized to glyceraldehyde-3-phosphate dehydrogenase (GAPDH) as a house-keeping gene. The data were processed using the delta-delta Ct method and expressed as a fold induction over the negative control (DMSO) or as a percentage of the positive control (maximal induction by TCDD).

CYP1A1 mRNA [3] = test system: CYP1A1 mRNA; parameters: method as in PMID 24563545; details: 100 µM IAA, cited from earlier work
mouse AhR = test system: mouse AhR; parameters: method as in PMID 9708986; details: cited from earlier work
CYP1A1 mRNA [4] = assay: CYP1A1 mRNA (qRT-PCR) in intestinal LS180 cells; assay type: cell-based, human; details: LS180 cells co-incubated with TCDD (10 nM), 24 h
Procedure: as §1, §2

guinea pig AhR = test system: guinea pig AhR; parameters: method as in PMID 9708986; details: cited from earlier work
murine AhR = molecular target: T1, murine AhR (Mus musculus, UniProt P30561); assay: Competitive radio-ligand ([3H]-TCDD) AhR binding assay, cytosols from Hepa1c1c7 cells; details: data not shown
T1 sequence (P30561 10-805): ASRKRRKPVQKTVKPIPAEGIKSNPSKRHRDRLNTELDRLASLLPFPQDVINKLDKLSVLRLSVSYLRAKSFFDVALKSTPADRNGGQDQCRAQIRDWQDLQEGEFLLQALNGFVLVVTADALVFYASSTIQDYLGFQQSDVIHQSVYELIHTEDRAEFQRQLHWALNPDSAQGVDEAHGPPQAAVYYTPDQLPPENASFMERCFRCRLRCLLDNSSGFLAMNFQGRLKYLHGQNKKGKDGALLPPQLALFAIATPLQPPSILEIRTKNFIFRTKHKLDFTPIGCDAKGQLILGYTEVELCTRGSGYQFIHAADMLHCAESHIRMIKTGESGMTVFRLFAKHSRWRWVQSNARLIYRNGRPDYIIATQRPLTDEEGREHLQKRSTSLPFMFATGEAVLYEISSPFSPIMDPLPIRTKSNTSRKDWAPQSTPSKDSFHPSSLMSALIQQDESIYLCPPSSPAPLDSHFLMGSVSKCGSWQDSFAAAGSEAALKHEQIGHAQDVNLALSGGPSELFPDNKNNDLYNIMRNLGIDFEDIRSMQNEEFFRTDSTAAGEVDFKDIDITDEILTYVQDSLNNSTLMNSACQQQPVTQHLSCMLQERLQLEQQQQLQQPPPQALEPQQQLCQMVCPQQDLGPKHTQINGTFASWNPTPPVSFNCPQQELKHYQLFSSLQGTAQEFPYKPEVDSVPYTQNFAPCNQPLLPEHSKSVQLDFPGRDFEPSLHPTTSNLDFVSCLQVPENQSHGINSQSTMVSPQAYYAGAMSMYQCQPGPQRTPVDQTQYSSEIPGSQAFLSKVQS
Procedure: Figure 2 Competitive radio-ligand binding assay. Cytosols from Hepa1c1c7 cells were incubated with vehicle (negative control; 0.1% V/V), FICZ (positive control; 0.01 nM – 10 nM), TCDF (non-specific binding; 200 nM) and increasing doses of MICT in the presence of 2 nM [^3H]-TCDD. The specific binding of [^3H]-TCDD was determined as a difference between total and non-specific (200 nM; TCDF) reactions (value for vehicle DMSO; 0.1% V/V = corresponds to specific binding of [^3H]-TCDD = 100%). At least two independent experiments were performed and the incubations were done in triplicates in each experiment (technical replicates).
Ligand binding assay was performed using cytosolic protein extracts from murine Hepa1c1c7 cells as described. Briefly, aliquots of protein (2 mg/mL) were incubated at the room temperature for two (2) h with 2 nM [^3H]-TCDD in the presence of DMSO (vehicle control), FICZ (positive control), 200 nM TCDF (non-specific binding) or increasing concentration of MICT. After the incubation, the hydroxyapatite slurry was added to the samples and the suspension was incubated on ice and washed three times with HEGT buffer. The hydroxyapatite pellet was re-suspended in scintillation cocktail, and radioactivity was determined in a liquid scintillation counter. The specific binding of [^3H]-TCDD was determined by subtracting the radioactivity of non-specific reaction (TCDF) from total radioactivity. The values of IC50 were calculated where appropriate.

AhR [5] = molecular target: T2, AhR (Homo sapiens, UniProt P35869); assay: Reporter gene assay in AZ-AHR cells, agonist analyses (luciferase)
T2 sequence (P35869 11-848): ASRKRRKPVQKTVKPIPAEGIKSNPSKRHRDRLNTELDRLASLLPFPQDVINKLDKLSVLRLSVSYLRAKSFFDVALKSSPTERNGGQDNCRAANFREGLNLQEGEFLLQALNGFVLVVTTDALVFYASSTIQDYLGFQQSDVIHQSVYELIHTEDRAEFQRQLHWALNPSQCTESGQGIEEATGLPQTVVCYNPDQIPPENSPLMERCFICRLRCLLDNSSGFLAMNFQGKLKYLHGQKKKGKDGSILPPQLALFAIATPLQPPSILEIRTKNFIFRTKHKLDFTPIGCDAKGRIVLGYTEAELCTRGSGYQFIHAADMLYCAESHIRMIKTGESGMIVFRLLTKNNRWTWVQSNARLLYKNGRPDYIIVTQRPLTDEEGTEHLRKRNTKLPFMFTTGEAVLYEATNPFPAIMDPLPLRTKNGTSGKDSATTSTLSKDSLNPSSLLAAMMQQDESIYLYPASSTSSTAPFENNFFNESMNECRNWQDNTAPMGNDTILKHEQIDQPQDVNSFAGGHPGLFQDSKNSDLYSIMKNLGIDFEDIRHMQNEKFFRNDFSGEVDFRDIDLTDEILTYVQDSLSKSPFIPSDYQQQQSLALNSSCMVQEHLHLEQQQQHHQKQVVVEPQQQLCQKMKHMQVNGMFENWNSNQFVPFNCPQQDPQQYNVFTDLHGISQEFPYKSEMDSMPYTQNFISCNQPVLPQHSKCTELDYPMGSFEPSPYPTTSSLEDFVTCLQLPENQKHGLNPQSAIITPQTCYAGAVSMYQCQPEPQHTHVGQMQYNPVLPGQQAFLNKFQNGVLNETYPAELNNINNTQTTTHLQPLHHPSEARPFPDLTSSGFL
Procedure: (§3) In the first series of experiments, we evaluated the agonistic and antagonistic effects of MICT on the AhR activation. […] The antagonistic effects of MICT were evaluated against typical full agonists of the AhR, comprising TCDD, BaP, and FICZ, which were applied at fixed concentrations corresponding to their EC80.
(§4) Following the treatments, we lysed cells, and luciferase activity was measured. Experiments were performed at least in four consecutive cell passages. Incubations were performed in quadruplicates (technical replicates). In agonist analyses, the data from a representative experiment, expressed as a fold induction of luciferase activity over control cells, are shown. In antagonist analyses, the data are a percentage of maximal induction, and they are the mean ± SD.
(§5) Then, cells were lysed, and luciferase activity was measured using the Tecan Infinite M200 plate luminometer (Schoeller Instruments, Czech Republic). The experiments were performed in at least four consecutive cell passages, and the treatments were in quadruplicates (technical replicates). The values of half-maximal effective concentration (EC50) for each MICT, and half-maximal inhibitory concentration (IC50—where appropriate) were calculated.
Supplementary Figure 2. Tryptophan effects in culture medium on AhR activity. (A) Time-course of Trp
levels in culture media from hepatic (AZ-AHR), instestinal (LS174T) and skin (HaCaT) cells. Determined by
HPLC. (B) Induction of AhR-dependent luciferase activity in AZ-AHR cells incubated for 24 h with TCDD,
Indole and Trp in Trp/serum-free culture medium. (C) Induction of AhR-dependent luciferase activity in
AZ-AHR cells incubated for 24 h with TCDD and Indole in standard (+Trp/+FBS), serum-free (+Trp/-FBS),
Trp-free (-Trp/+FBS) and Trp/serum-free (-Trp/-FBS) culture medium. […]

AhR [6] = molecular target: T2, AhR; assay: Reporter gene assay in AZ-AHR cells, antagonist analyses against TCDD, BaP, FICZ
Procedure: as §3
as §4, with “AZ-AHR cells were incubated for 24 h with vehicle (DMSO; 0.1% v/v) and increasing concentrations of MICT, in the absence (agonist analyses) or the presence (antagonist analyses) of TCDD (13.5 nM), BaP (15.8 µM) and FICZ (22.6 µM). Following” for “Following”
as §5, with “AZ-AHR cells were incubated for 24 h with vehicle (DMSO; 0.1% v/v) and increasing concentrations of tested MICT in the presence or absence of TCDD (13.5 nM), FICZ (22.6 µM), or BaP (15.8 µM). Then,” for “Then,”

AhR [7] = test system: AhR; parameters: method as in PMID 26235394; details: 10 µM IPA, HepG2 cells; cited from earlier work

induction of CYP1A1 mRNA (CYP1A1 mRNA [2])	Gene Expression (CYP1A1 mRNA [2])	antagonistic effects on CYP1A1 mRNA (CYP1A1 mRNA [4])	antagonistic effect against full agonists (AhR [6]; AZ-AHR cells, 24 h, TCDD, BaP and FICZ at EC80)	Antagonism (IC50) (AhR [6]; Table 1 summary class)	activation of AhR (AhR [5]; AZ-AHR cells, 200 µM)	fold induction of luciferase activity (efficacy) (AhR [5]; AZ-AHR cells, 24 h, up to 200 µM (IAC 100 µM, IND 10 mM), plateau not reached)	EC50 (AhR [5]; EC50, AZ-AHR cells, 24 h, agonist analyses)	Efficacy (EMAX) (AhR [5]; Table 1 summary class)	Potency (EC50) (AhR [5]; Table 1 summary class)	Structure (SMILES)	activation of the AhR (AhR [1])	induction of CYP1A1 mRNA (CYP1A1 mRNA [3]; Caco-2 and MDA-MB-231 cells)	induction of CYP1A1 mRNA (CYP1A1 mRNA [3]; MDA-MB-468 cells)	concentration at which activation of AhR was described (mouse AhR)	concentration at which activation of AhR was described (guinea pig AhR)	displacement of 3H-TCDD from binding at the murine AhR (murine AhR)	activation of AhR (AhR [5])	AhR activation (AhR [7])
no induction	inactive	to a lesser extent	–	–	–	–	–	–	–	O=C(O)Cc1c[nH]c2ccccc12 [IAA, indole-3-acetate]	15 fold	≈ 5 fold	not	2 mM	2 mM	–	–	–
–	–	–	–	–	–	–	–	–	–	N[C@@H](Cc1c[nH]c2ccccc12)C(=O)O [Trp, tryptophan]	–	–	–	–	–	did not displace	did not activate	–
no induction	inactive	to a lesser extent	no antagonistic effects	none	negligible activation	≈ 8 fold	98.3 ± 5.72 µM	low	low	O=C(O)CCc1c[nH]c2ccccc12 [IPA, indole-3-propionate]	–	–	–	–	–	–	–	no AhR activation

From publication PMC7177849, “Gut Microbial Catabolites of Tryptophan Are Ligands and Agonists of the Aryl Hydrocarbon Receptor: A Detailed Characterization” (International Journal of Molecular Sciences, 2020)
